According to patent publication US5919761A, “Peptides for heparin and low molecular weight heparin anticoagulation reversal” (The Board of Regents of the University of Michigan, priority 1995, dated 1999):
Several values for one entry are separate records, joined by “and”; a condition that tells them apart may be missing. Identical values can stand only once. Peptide text beside a SMILES is read from it.

What was measured:
[1] = Maximum hemodynamic changes and total toxicity score after standard heparin reversal, cell adhesion ligand analogs, canine study; settings: dogs, agent over 10 seconds; for Maximum hemodynamic change, Mean BP: standard heparin 150 IU/kg IV; for Maximum hemodynamic change, Mean BP / Maximum hemodynamic change, CO / Maximum hemodynamic change, HR / Maximum hemodynamic change, VO2: 5 minutes; for Maximum hemodynamic change, CO / Maximum hemodynamic change, HR / Maximum hemodynamic change, VO2: standard heparin; for Total Toxicity Score: standard unfractionated heparin
Procedure: In these studies, the anticoagulation-reversing agents were administered over a 10 second interval to maximize the hemodynamic effects.
Hemodynamic studies were conducted by measuring mean blood pressure (Mean BP) in mm Mercury, maximum percent changes in cardiac output (CO) and systemic oxygen consumption (VO2), and heart rate (HR) in beats per minute. Measurements and calculations were made at baseline, before administration of standard, unfractionated heparin, 3 minutes before reversal, every 30 seconds for 5 minutes after reversal.
Total toxicity scores (TTS) were developed in accordance with the method described hereinabove that reflected maximum declines in each of four parameters (MAP, CO, VO2 and HR) over the first 5 minutes after reversal.

[2] = system: standard, unfractionated heparin; assay: Factor Xa and IIa reversal after standard heparin, cell adhesion ligand analogs, canine study; assay type: in vivo; settings: dogs, 3 min post administration
Procedure: Anticoagulation reversal was assessed by a number of standard coagulation tests performed upon samples of venous blood in the manner described hereinabove. Measurements were made 3 minutes prior to heparin reversal (baseline) and 3 minutes, 10 minutes, and 30 minutes post-administration of the heparin reversal agent. […] Referring to FIGS. 4a through 4d, compound [+18RGD] performs as well, or better, than n-protamine in the standard coagulation tests performed in these studies.

[3] = Percent change in platelet count after Enoxaparin reversal, canine study; assay type: in vivo; settings: dogs, agent over 10 seconds
Procedure: (§1) Seven female dogs (mean weight 15-20 kg) received intravenous standard, unfractionated heparin (150 IU/kg IV) or LMWH (Enoxaparin, Rhone-Poulac, France; 100 IU/kg factor Xa activity) followed by reversal with commercial salmine protamine (n-protamine purchased from Eli Lilly, Indianapolis, Ind., 1.5 mg/kg (100 IU/mg) IV) or an anticoagulation-reversing agent which is a protamine-like peptide variant identified hereinbelow. In these studies, the anticoagulation-reversing agents were administered over a 10 second interval to maximize the hemodynamic effects.

[4] = Percent change in platelet count after standard heparin reversal, cell adhesion ligand analogs, canine study; assay type: in vivo; settings: dogs, agent over 10 seconds
Procedure: In addition to hemodynamic changes, Table 15 lists the percent change in platelet count following administration of n-protamine and the selected variants, as well as the factor Xa and factor IIa reversal, as a percent change at 3 minutes post administration of the compound.

LMWH (Enoxaparin) = assay: Factor Xa and IIa reversal after LMWH Enoxaparin, canine study; assay type: in vivo; settings: dogs, 3 min
Procedure: Similar studies were conducted to assess the ability of the protamine-like peptide analogs described in this section to reverse the anticoagulation effects of the LMWH, Enoxaparin. FIG. 5a through FIG. 5d are graphical representations of LMWH anticoagulation activities achieved by n-protamine (Protamine [+21]), and compounds [+18BE], [+18KDEL], and [+18RGD] plotted as a percent of reversal against time in minutes. […] Referring to FIG. 5c, compound [+18RGD] dramatically outperforms n-protamine in reversing the heparin antifactor Xa activity of Enoxaparin.

[5] = Maximum hemodynamic changes and total toxicity score after Enoxaparin reversal, canine study; settings: dogs, agent over 10 seconds; for Maximum hemodynamic change, Mean BP: Enoxaparin 100 IU/kg; for Maximum hemodynamic change, Mean BP / Maximum hemodynamic change, CO / Maximum hemodynamic change, HR / Maximum hemodynamic change, VO2: 5 minutes; for Total Toxicity Score (TTS) / Maximum hemodynamic change, CO / Maximum hemodynamic change, HR / Maximum hemodynamic change, VO2: Enoxaparin
Procedure: as §1

[6] = system: standard, unfractionated heparin; assay: Percent reversal of standard heparin anticoagulation by variant peptides and protamine, in vivo canine study, coagulation tests; set-up: species or system dogs; settings: for Percent reversal of heparin anticoagulation, ACT: heparin 150 IU/kg IV, agent 1.5 mg/kg IV over 10 seconds
Procedure: Data are expressed as a mean ±1 SD. Statistical analysis using linear regression for determination of correlation coefficients, and analysis of variance (ANOVA) or unpaired two-way Student's t-test; p<0.05 was accepted as statistically significant.
Anticoagulation reversal was assessed by a number of standard coagulation tests performed upon samples of venous blood: activated clotting time (ACT), prothrombin time (PT), activated partial thromboplastin time (aPTT), thrombin clotting time (TCT), heparin concentration by assay for FXa inhibitory activity (FXa), white cell count (WBC), and platelet counts (PLT). Measurements were made 3 minutes prior to heparin reversal (baseline) and 3 minutes and 30 minutes post-administration of the heparin reversal agent. The "Heparin" row sets forth the observed reversal as a consequence of expected heparin metabolism or degradation alone.

[7] = Hemodynamic studies and total toxicity score after standard heparin reversal, canine study; settings: dogs
Procedure: As used hereinafter, the peptides will be identified by their total cationic charge value, e.g., [+8], [+16], etc.
Hemodynamic studies were conducted by measuring mean arterial pressure (MAP), heart rate (HR), and maximum percent changes in cardiac output (CO) and systemic oxygen consumption (VO2).
Total toxicity scores (TTS) were developed that reflected maximum declines in each of four parameters (MAP, CO, VO2 and HR) over the first 5 minutes after reversal, the latter being the time of expected greatest adverse hemodynamic effect. The maximum changes occurring in an individual dog over the first 5 minutes were divided by the standard deviation derived from the entire group of tested animals and the four scores were added, resulting in a TTS for each individual dog. The TTS values for each dog were then summed to obtain an average TTS and SD for each peptide studied.

Row | Compound | Maximum hemodynamic change, Mean BP [1] [mm Mercury] | Maximum hemodynamic change, CO [1] [%] | Maximum hemodynamic change, HR [1] [beats/min] | Maximum hemodynamic change, VO2 [1] [%] | Total Toxicity Score [1] | IIa Reversal [2] [%] | Xa Reversal [2] [%] | Platelet (percent change in platelet count) [3] [%] | Platelet (percent change in platelet count) [4] [%] | IIa Reversal (LMWH (Enoxaparin)) [%] | Xa Reversal (LMWH (Enoxaparin)) [%] | Maximum hemodynamic change, Mean BP [5] [mm Mercury] | Total Toxicity Score (TTS) [5] | Maximum hemodynamic change, CO [5] [%] | Maximum hemodynamic change, HR [5] [beats/min] | Maximum hemodynamic change, VO2 [5] [%] | other results
1 | CC(=O)N[C@@H](CCC(=O)O)C(=O)N[C@@H](C)C(=O)N[C@@H](CCCNC(=N)N)C(=O)N[C@@H](CCCNC(=N)N)C(=O)N[C@@H](C)C(=O)N[C@@H](C)C(=O)N[C@@H](CCCNC(=N)N)C(=O)N[C@@H](CCCNC(=N)N)C(=O)N[C@@H](C)C(=O)N[C@@H](CCCNC(=N)N)C(=O)N[C@@H](CCCNC(=N)N)C(=O)N[C@@H](C)C(=O)N[C@@H](C)C(=O)N[C@@H](CCCNC(=N)N)C(=O)N[C@@H](CCCNC(=N)N)C(=O)N[C@@H](C)C(=O)N[C@@H](CCCNC(=N)N)C(=O)N[C@@H](CCCNC(=N)N)C(=O)N[C@@H](C)C(=O)N[C@@H](C)C(=O)N[C@@H](CCCNC(=N)N)C(=O)N[C@@H](CCCNC(=N)N)C(=O)N[C@@H](C)C(=O)N[C@@H](CCCNC(=N)N)C(=O)N[C@@H](CCCNC(=N)N)C(=O)N[C@@H](C)C(=O)N[C@@H](C)C(=O)N[C@@H](CCCNC(=N)N)C(=O)N[C@@H](CCCNC(=N)N)C(=O)N[C@@H](C)C(=O)N[C@@H](CCCNC(=N)N)C(=O)N[C@@H](CCCNC(=N)N)C(=O)NCC(=O)N[C@H](C(=O)N[C@@H](CCCCN)C(=O)N[C@@H](CC(=O)O)C(=O)N[C@@H](CCC(=O)O)C(=O)N[C@@H](CC(C)C)C(=O)O)C(C)C [[+18KDEL], acetyl-EA(R2 A2 R2 A)4 R2 GVKDEL] (Ac-EARRAARRARRAARRARRAARRARRAARRARRGVKDEL-OH) | -5 | -12 | -14 | -6 | -3.53 ± 1.65 | 94 | 97 | -40 | -24 | 98 | 48 | -6 | -5.00 and -5.0 ± 3.44 | -14 | -11 | -10 | –
2 | P(K2 O2 G4)3 K2 O2 [[+8]] | – | – | – | – | – | – | – | – | – | – | – | – | – | – | – | – | in vivo heparin reversal (summary) ([6]; dogs, standard heparin): not capable of effect heparin reversal; Percent reversal of heparin anticoagulation, ACT ([6]; dogs, 3 min post-administration): 7%; Percent reversal of heparin anticoagulation, ACT ([6]; dogs, 30 min): 37%; Percent reversal of heparin anticoagulation, APTT ([6]; same study, 3 min): 0%; Percent reversal of heparin anticoagulation, FNa ([6]; same study, 3 min): 8%; Percent reversal of heparin anticoagulation, FXa ([6]; same study, 3 min): -1%; Percent reversal of heparin anticoagulation, PT ([6]; same study, 3 min): 21%; Percent reversal of heparin anticoagulation, TCT ([6]; same study, 3 min): 0%; Percent reversal of heparin anticoagulation, APTT ([6]; same study, 30 min): 50%; Percent reversal of heparin anticoagulation, FXa ([6]; same study, 30 min): 9%; Percent reversal of heparin anticoagulation, PT ([6]; same study, 30 min): 50%; Percent reversal of heparin anticoagulation, TCT ([6]; same study, 30 min): 0%; ΔHR [7]: -9; ΔMAP ([7]; average maximum decline in first five minutes after peptide administration): -1; average total toxicity score (TTS±SD) ([7]; first 5 minutes after reversal, more negative = more toxic): -1.9±1.1; ΔCO ([7]; maximum percent change): -8%; ΔVO2 ([7]; maximum percent change): -8%
3 | CC(=O)N[C@@H](CCC(=O)O)C(=O)N[C@@H](C)C(=O)N[C@@H](CCCNC(=N)N)C(=O)N[C@@H](CCCNC(=N)N)C(=O)N[C@@H](C)C(=O)N[C@@H](C)C(=O)N[C@@H](CCCNC(=N)N)C(=O)N[C@@H](CCCNC(=N)N)C(=O)N[C@@H](C)C(=O)N[C@@H](CCCNC(=N)N)C(=O)N[C@@H](CCCNC(=N)N)C(=O)N[C@@H](C)C(=O)N[C@@H](C)C(=O)N[C@@H](CCCNC(=N)N)C(=O)N[C@@H](CCCNC(=N)N)C(=O)N[C@@H](C)C(=O)N[C@@H](CCCNC(=N)N)C(=O)N[C@@H](CCCNC(=N)N)C(=O)N[C@@H](C)C(=O)N[C@@H](C)C(=O)N[C@@H](CCCNC(=N)N)C(=O)N[C@@H](CCCNC(=N)N)C(=O)N[C@@H](C)C(=O)N[C@@H](CCCNC(=N)N)C(=O)N[C@@H](CCCNC(=N)N)C(=O)N[C@@H](C)C(=O)N[C@@H](C)C(=O)N[C@@H](CCCNC(=N)N)C(=O)N[C@@H](CCCNC(=N)N)C(=O)N[C@@H](C)C(=O)N[C@@H](CCCNC(=N)N)C(=O)N[C@@H](CCCNC(=N)N)C(=O)NCC(=O)N[C@@H](CCCNC(=N)N)C(=O)NCC(=O)N[C@@H](CC(=O)O)C(=O)N[C@@H](CO)C(=O)N1CCC[C@H]1C(=O)N[C@@H](C)C(N)=O [[+18RGD], acetyl-EA--(R2 A2 R2 A)4 R2 GRGDSPA-amide] (Ac-EARRAARRARRAARRARRAARRARRAARRARRGRGDSPA-NH2) | -2 | -3 | -3 | -4 | -1.43 ± 0.61 | 100 | 100 | -31 | -27 | 100 | 72 | -1 | -2.68 and -2.68 ± 0.88 | -3 | -3 | -7 | –
